Measurements reported in patent US11478461B2, “[1.1.1] bicyclo compounds as indoleamine 2,3-dioxygenase inhibitors” (Merck Sharp & Dohme Corp., priority 2018, dated 2022).

Experiments:
[1] = biological target: T1, IDO1 (Homo sapiens, UniProt P14902); experiment: IDO1 Cellular Assay in Hela Cells Stimulated with IFNγ; format: cell-based; details: IFNγ 100 ng/mL, 300 uM L-tryptophan, about 48 hours, fluorescence readout, read-out: IDO1 HELA Cell Assay, IC50
How it was run: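 HeLa cells stimulated with 100 ng/mL IFNγ, supplemented with 300 uM L-tryptophan, incubated 48 h at 37° C with ten 3-fold compound dilutions. Unstimulated cells served as Max-E control. Kynurenine detected by fluorescence (ex 400/em 510 nm) after overnight methyl isonipecotate reaction; IC50 by four-parameter logistic fit.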

[2] = biological target: T1, IDO1; experiment: IDO1 Human whole blood Assay; format: cell-based; set-up: Human whole blood was drawn in sodium heparin coated tubes from healthy internal donors; from tissue; host or cells: Human whole blood from healthy donors, stimulated with LPS and IFNγ; details: LPS and IFNγ 100 ng/mL, 18 h, kynurenine by LC/MS/MS
Procedure: Compounds to be tested were serially diluted in ten 3-fold steps in DMSO starting from 10 mM. 3 μL of compound dilutions or DMSO alone were then dispensed from the dilution plate into a polypropylene 96-well assay plate containing 97 μL of RPMI using an Echo 555 acoustic liquid handler (Labcyte). LPS and IFNγ was prepared in RPMI to a 10× of final conc. (1000 ng/mL), final concentration is 100 ng/mL.
Human whole blood was drawn in sodium heparin coated tubes from healthy internal donors. Two hundred forty μL of blood was transferred to each of the wells of a v-bottom 96 well plate. Thirty μL of compound was transferred from intermediate dilution plate, and incubated for 15 min. Thirty μL from stimulants was then transferred to blood and mixed thoroughly. Plate was covered with breathable membrane and incubated at 37° C. for overnight (18 h).
On day 2 isotope labeled standard of kynurenine and tryptophan was made in water at 10× concentration and 30 μL was added to the blood at 3 μM final concentration. The assay plates were centrifuged at 300×G for 10 min with no brake to separate plasma from red blood cells. Sixty μL of plasma samples was removed without disturbing red blood cells. Plasma was diluted with RPMI in 1:1 ratio and proteins were precipitated out with two volume of acetonitrile. The plates were centrifuged at 4000×G for 60 min. Twenty μL of supernatant was carefully transferred to a 384 well plate containing 40 μL of 0.1% formic acid in water and analyzed by LC/MS/MS.
LC/MS/MS analyses were performed using Thermo Fisher's LX4-TSQ Quantum Ultra system. This system consists of four Agilent binary high-performance liquid chromatography (HPLC) pumps and a TSQ Quantum Ultra triple quadruple MS/MS instrument. For each sample, 5 μL were injected onto an Atlantis T3 column (2.1 mm×150 mm, 3 μm particle size) from Waters. The mobile phase gradient pumped at 0.8 mL/min was used to elute the analytes from the column at 25° C. The elution started at 0% B increasing linearly to 25% B at 6.5 min, holding at 25% for 1 min, re-equilibrating to 10 min. Mobile phase A consisted of 0.1% formic acid in water. Mobile phase B consisted of 0.1% of formic acid in acetonitrile. Data was acquired in positive mode using a HESI interface. The operational parameters for the TSQ Quantum Ultra instrument were a spray voltage of 4000 V, capillary temperature of 380° C., vaporizer temperature 400° C., shealth gas 60 arbitrary units, Aux gas 20 arbitrary units, tube lens 85 and collision gas 1.2 mTorr. SRM chromatograms of kynurenine (Q1: 209.2>Q3:94.0) and internal standard (Q1: 215.3>Q3:98.2) were collected for 90 sec. The peak area was integrated by Xcalibur Quan software. The ratios between the kynurenine generated in the reaction and 2D6-Kynurenine spiked-in internal standard were used to generate percentage inhibition and IC50 values. Compounds were titrated and IC50's were calculated by 4 parameter sigmoidal curve fitting formula.
The biological activity data of selective compounds using the IDO1 human whole blood assay described above are summarized in the table below.

T1 sequence (P14902 whole entry): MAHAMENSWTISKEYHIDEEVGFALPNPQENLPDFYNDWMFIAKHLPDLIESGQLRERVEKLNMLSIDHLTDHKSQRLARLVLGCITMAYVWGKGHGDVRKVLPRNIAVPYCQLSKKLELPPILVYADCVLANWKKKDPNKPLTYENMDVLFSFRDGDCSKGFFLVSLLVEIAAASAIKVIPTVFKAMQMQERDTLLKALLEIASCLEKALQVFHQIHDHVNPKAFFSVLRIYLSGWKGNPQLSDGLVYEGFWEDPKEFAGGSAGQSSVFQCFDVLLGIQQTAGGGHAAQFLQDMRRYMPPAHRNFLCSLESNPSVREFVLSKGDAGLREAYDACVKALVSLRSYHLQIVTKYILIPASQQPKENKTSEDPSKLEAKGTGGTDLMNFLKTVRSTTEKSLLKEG

Row | SMILES | IC50 [1] | IC50 [2]
1 | O=C(NC12CC(C3(C(=O)Nc4ccc(F)cc4)CCC3)(C1)C2)c1ccc(Cl)c(Cl)c1 [Example 5, 3,4-Dichloro-N-(3-(1-((4-fluorophenyl)carbamoyl)cyclobutyl)bicyclo[1.1.1]pentan-1-yl)benzamide] | 0.00212 µM | 0.0447 µM
2 | CC(C(=O)Nc1ccc(F)nc1)C12CC(NC(=O)c3ccc(Cl)c(Cl)c3)(C1)C2 (single isomer, unassigned) [Example 14, 3,4-dichloro-N-(3-(1-((6-fluoropyridin-3-yl)amino)-1-oxopropan-2-yl)bicyclo[1.1.1]pentan-1-yl)benzamide] | 0.00616 µM | 0.406 µM
3 | CC(C(=O)Nc1ccc(F)cc1)C12CC(NC(=O)c3ccc(Cl)c(Cl)c3)(C1)C2 (single isomer, unassigned) [Example 9, 3,4-dichloro-N-(3-(1-((4-fluorophenyl)amino)-1-oxopropan-2-yl)bicyclo[1.1.1]pentan-1-yl)benzamide] | 0.00155 µM | 0.924 µM
4 | Cc1cc(C(=O)NC23CC([C@@H](C)C(=O)Nc4ccc(F)cc4)(C2)C3)ccc1F [Example 46, 4-fluoro-N-[3-[(1R)-2-(4-fluoroanilino)-1-methyl-2-oxo-ethyl]-1-bicyclo[1.1.l]pentanyl]-3-methyl-benzamide] | 0.00212 µM | 0.139 µM
5 | CC(C(=O)Nc1ccc(Cl)cc1)C12CC(NC(=O)c3cccc(Cl)c3)(C1)C2 (single isomer, unassigned) [Example 7, 3-Chloro-N-(3-(1-((4-chlorophenyl)amino)-1-oxopropan-2-yl)bicyclo [1.1.1]pentan-1-yl) Benzamide] | 0.00105 µM | 0.0482 µM
6 | O=C(NC12CC(C3(C(=O)Nc4ccc(F)cc4)CC3)(C1)C2)c1ccc(Cl)c(Cl)c1 [Example 100, 3,4-Dichloro-N-(3-(1-((4-fluorophenyl)carbamoyl)cyclopropyl)bicyclo[1.1.1]pentan-1-yl)benzamide] | 0.00335 µM | 0.454 µM
7 | O=C(NC12CC(C3(NC(=O)c4ccc(F)cc4)CC3)(C1)C2)c1ccc(Cl)c(Cl)c1 [Example 24, 3,4-Dichloro-N-(3-(1-(4-fluorobenzamido)cyclopropyl)bicyclo[1.1.1]pentan-1-yl)benzamide] | 0.00413 µM | 0.401 µM
8 | C[C@H](C(=O)Nc1ccc(F)cc1)C12CC(NC(=O)c3cc(Cl)ccc3F)(C1)C2 [Example 56, 5-chloro-2-fluoro-N-[3-[(1S)-2-(4-fluoroanilino)-1-methyl-2-oxo-ethyl]-1-bicyclo[1.1.1]pentanyl]benzamide] | 0.00251 µM | 0.328 µM
9 | CC(C(=O)Nc1ccc(Cl)nc1)C12CC(NC(=O)c3ccc(Cl)c(Cl)c3)(C1)C2 (single isomer, unassigned) [Example 15, 3,4-dichloro-N-(3-(1-((6-chloropyridin-3-yl)amino)-1-oxopropan-2-yl)bicyclo[1.1.1]pentan-1-yl)benzamide] | 0.00446 µM | 1.1 µM
10 | C[C@@H](C(=O)Nc1ccc(F)cc1)C12CC(NC(=O)c3cccc(C(F)(F)F)c3)(C1)C2 [Example 42, N-[3-[(1R)-2-(4-fluoroanilino)-1-methyl-2-oxo-ethyl]-1-bicyclo[1.1.1]pentanyl]-3-(trifluoromethyl)benzamide] | 0.00502 µM | 
11 | C[C@H](C(=O)Nc1ccc(F)cc1)C12CC(NC(=O)OC3CCCC3)(C1)C2 [Example 77, cyclopentyl (S)-(3-(1-((4-fluorophenyl)amino)-1-oxopropan-2-yl)bicyclo[1.1.1]pentan-1-yl)carbamate] |  | 0.452 µM
12 | C[C@H](C(=O)Nc1ccc(F)cc1)C12CC(NC(=O)Nc3ccc(F)cc3)(C1)C2 [Example 85, (S)-N-(4-fluorophenyl)-2-(3-(3-(4-fluorophenyl)ureido)bicyclo [1.1.1]pentan-1-yl)propanamide] | 0.0732 µM | 
13 | CC(C(=O)Nc1ccc(F)cc1)C12CC(NC(=O)c3ccn(C(F)F)n3)(C1)C2 (stereo not shown) [Example 131, 1-(difluoromethyl)-N-[3-[2-(4-fluoroanilino)-1-methyl-2-oxo-ethyl]-1-bicyclo[1.1.1]pentanyl]pyrazole-3-carboxamide] | 0.248 µM | 
14 | Cc1cc(C(=O)NC23CC([C@H](C)C(=O)Nc4ccc(F)cc4)(C2)C3)ccc1C#N [Example 151, (S)-4-cyano-N-(3-(1-((4-fluorophenyl)amino)-1-oxopropan-2-yl)bicyclo[1.1.1]pentan-1-yl)-3-methylbenzamide] | 0.0556 µM | 
15 | CC(C(=O)Nc1ccc(F)cc1)C12CC(NC(=O)c3cc4ccccn4c3)(C1)C2 (stereo not shown) [Example 116, N-[3-[2-(4-fluoroanilino)-1-methyl-2-oxo-ethyl]-1-bicyclo[1.1.1]pentanyl]indolizine-2-carboxamide] | 0.0692 µM | 
16 | Cc1noc(C(=O)NC23CC(C4(NC(=O)c5ccc(F)cc5)CC4)(C2)C3)n1 [Example 28, N-(3-(1-(4-fluorobenzamido)cyclopropyl)bicyclo[1.1.1]pentan-1-yl)-3-methyl-1,2,4-oxadiazole-5-carboxamide] | 0.0722 µM | 
17 | CC(C(=O)Nc1ccc(F)cc1)C12CC(NC(=O)c3ncccc3F)(C1)C2 (stereo not shown) [Example 137, 3-fluoro-N-[3-[2-(4-fluoroanilino)-1-methyl-2-oxo-ethyl]-1-bicyclo[1.1.1]pentanyl]pyridin-1-ium-2-carboxamide] | 0.387 µM | 
18 | Cc1nc(C(=O)NC23CC(C4(NC(=O)c5ccc(F)cc5)CC4)(C2)C3)no1 [Example 30, N-(3-(1-(4-fluorobenzamido)cyclopropyl)bicyclo[1.1.1]pentan-1-yl)-5-methyl-1,2,4-oxadiazole-3-carboxamide] | 0.0477 µM | 
19 | Cc1cc(C(=O)NC23CC([C@@H](C)C(=O)Nc4ccc(F)cc4)(C2)C3)ccc1F [Example 39, 4-fluoro-N-[3-[(1R)-2-(4-fluoroanilino)-1-methyl-2-oxo-ethyl]-1-bicyclo[1.1.l]pentanyl]-3-methyl-benzamide] | 0.201 µM | 
20 | COc1cc(C(=O)NC23CC(C(C)C(=O)Nc4ccc(F)cc4)(C2)C3)ccn1 (stereo not shown) [Example 125, N-[3-[2-(4-fluoroanilino)-1-methyl-2-oxo-ethyl]-1-bicyclo[1.1.1]pentanyl]-2-methoxy-pyridin-1-ium-4-carboxamide] | 0.178 µM | 
21 | C[C@H](C(=O)Nc1ccc(F)cc1)C12CC(NC(=O)OCc3ccccc3)(C1)C2 [Example 78, benzyl (S)-(3-(1-((4-fluorophenyl)amino)-1-oxopropan-2-yl)bicyclo[1.1.1]pentan-1-yl)carbamate] | 0.0218 µM | 
22 | C[C@H](C(=O)Nc1ccc(F)cc1)C12CC(NC(=O)c3ccc(F)c(Cl)c3)(C1)C2 [Example 48, 3-chloro-4-fluoro-N-[3-[(1S)-2-(4-fluoroanilino)-1-methyl-2-oxo-ethyl]-1-bicyclo[1.1.1]pentanyl]benzamide] | 0.00172 µM | 
23 | CC(C(=O)Nc1ccc(Cl)cc1)C12CC(NC(=O)c3cccc(C#N)c3)(C1)C2 (single isomer, unassigned) [Example 13, N-(3-(1-((4-chlorophenyl)amino)-1-oxopropan-2-yl)bicyclo[1.1.1]pentan-1-yl)-3-cyanobenzamide] | 0.133 µM | 
24 | CC(C(=O)Nc1ccc(F)cc1)C12CC(NC(=O)Cc3ccccc3C(F)(F)F)(C1)C2 (stereo not shown) [Example 128, N-(4-fluorophenyl)-2-[3-[[2-[2-(trifluoromethyl)phenyl]acetyl]amino]-1-bicyclo[1.1.1]pentanyl]propanamide] | 0.194 µM | 
25 | O=C(NC12CC(C3(C(=O)Nc4ccc(F)cc4)COC3)(C1)C2)c1cccc(Cl)c1 [Example 104, 3-(3-(3-Chlorobenzamido)bicyclo[1.1.1]pentan-1-yl)-N-(4-fluorophenyl)oxetane-3-carboxamide] | 0.0207 µM | 
